From patent US7332492B2, “Amino substituted dibenzothiophene derivatives for the treatment of disorders mediated by NP Y5 receptor” (AstraZeneca AB, priority 2000, dated 2008)

Target: T1, human neuropeptide Y5 receptor (Homo sapiens, UniProt Q15761)
T1 construct: starting at base 56 through to base 1393, to express the protein 10 amino acid residues shorter at the amino terminal end; made in house; host or cells: High 5 insect cells (baculovirus, pFASTBAC1 / Bac-to-Bac); membrane preparation
T1 sequence (Q15761 1-445): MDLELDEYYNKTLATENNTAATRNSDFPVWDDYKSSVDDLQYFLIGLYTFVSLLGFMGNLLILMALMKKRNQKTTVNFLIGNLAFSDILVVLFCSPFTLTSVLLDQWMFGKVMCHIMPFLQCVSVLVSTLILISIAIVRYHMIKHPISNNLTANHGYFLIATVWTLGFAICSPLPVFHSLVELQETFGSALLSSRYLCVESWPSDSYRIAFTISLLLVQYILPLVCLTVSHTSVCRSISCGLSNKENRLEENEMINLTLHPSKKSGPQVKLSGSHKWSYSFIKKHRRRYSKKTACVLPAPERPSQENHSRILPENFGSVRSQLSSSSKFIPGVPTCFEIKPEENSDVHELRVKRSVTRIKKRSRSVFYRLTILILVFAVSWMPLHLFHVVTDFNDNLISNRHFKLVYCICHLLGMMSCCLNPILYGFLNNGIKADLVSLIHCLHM
Experiment: neuropeptide Y5 receptor binding assay (125I PYY displacement)
Conditions: 125I PYY binding, membranes of High 5 insect cells expressing human NPY5 receptor
Description: The activity of compounds of the invention was measured in a neuropeptide Y5 receptor binding assay as follows. Compounds were also tested in binding assays for the neuropeptide Y1 and neuropeptide Y2 receptors. Activity against these 2 receptors is contraindicated for a neuropeptide Y5 antagonist.
a) Expression of Human Neuropeptide Y5 Receptor in High 5™ Insect Cells.
High 5™ insect cells were obtained from Invitrogen (catalogue No B855-02) and stored in liquid nitrogen. Cells were revived from liquid nitrogen storage and grown at 28° C. in 100 ml ExCell 405 (JRH Biosciences) serum free medium in a 250 ml conical flask (Corning) agitated at 140 rpm in an Innova 4330 orbital shaker (New Brunswick Scientific). Cultures were routinely sub-cultured every 3-4 days.
High 5™ insect cells were transfected with the human NPY5 receptor as follows. PCR primers were designed against the huNPY5 receptor sequence, Genbank Accession Number U56079 [Gerald et. al. (1996) Nature 382, 168-171], but starting at base 56 through to base 1393, to express the protein 10 amino acid residues shorter at the amino terminal end [see Borowsky et. al. (1998) Regulatory Peptides 75-76, 45-53]. These primers were used to amplify the huNPY5 receptor from human placenta genomic DNA by PCR. […]

SMILES: CC(CN1CCOCC1)C(=O)Nc1ccc2sc3ccccc3c2c1 (stereo not shown) [Example 16]
- IC50: 94 nM
